One series concerns HIV-1 89.6. Put plainly: Antiviral efficacy in HIV-1 89.6-infected humanized NSG mice. It is filed as in vivo. As to conditions: 48 hrs. On the procedure: NOD.Cg-Prkdcscid Il2rgtm1Wjl/SzJ (NSG) mice initially purchased from Jackson Laboratories were bred and maintained in the Animal Core Facility at George Mason University (Manassas, VA). NSG mice were generated by i.p. injection of cryopreserved human CD34+ hematopoietic stem progenitor cells (HSPC) (500,000 cells per mouse) isolated from the autologous fetal liver. Anesthetized mice were inoculated by direct injection 16 weeks after implantation with 50 μl of HIV-1 89.6 (1,000 TCID50) or RPMI 1640 medium (mock infection). […] Blood was collected by tail vein after 48 hrs and transferred into microcentrifuge tubes containing 330 mM EDTA. Each data point represents the blood from a single animal. Plasma was removed after low-speed centrifugation for 5 min at room temperature and stored at -80°C. Viral RNA was extracted from plasma using the QIAamp Viral RNA Mini Kit (Qiagen). For quantitative analysis of HIV-1 RNA, total RNA was isolated from blood specimens of HIV-1-infected humanized mice. RNA was isolated using Trizol Reagent (Invitrogen, Carlsbad, CA) according to the manufacturer's protocol. A total of 1.0 μg of RNA was treated with 0.25 mg/ml DNase I RNase-free (Roche, Mannheim, Germany) for 60 min in the presence of 5 mM MgCl2, followed by heat inactivation at 65 °C for 15 min. A 200–250 ng aliquot of total RNA was used to generate cDNA with the GoScript Reverse Transcription System (Promega, Madison, WI) using TAR-specific reverse primer TAR+59R: 5′- […] -3′. Subsequent quantitative real-time PCR analysis was performed with 2 μl of undiluted RT reaction mixes. The iQ Supermix (Bio-Rad, Hercules, CA) was used with the primers specific for (1) HIV-1 TAR: TARfll-F: 5′-[…]-3′ and TAR+59R as above; (2) HIV-1 TAR-gag: Gag 1625R: 5’- […] -3’ and TAR+59R as above. Real-time PCR reactions were carried out in triplicate.

In another series the test system is CEM T cells. The series is described as follows: Cytotoxicity with calcein-AM. As to conditions: in words. Type of series: cell-based. As to the method:
To assess cytotoxicity with calcein, media was removed and the cells washed with PBS in order to remove serum esterase activity that may cause an increase in fluorescence through the hydrolysis of calcein-AM. Cells were then supplemented with 0.2 μM calcein-AM (Molecular Probes, Invitrogen) for 10 min at 37°C. Fluorescence was measured using the luminescence spectrometer described above implementing 495 nm excitation and 515 nm emission filters.

Series [1] is described as follows: 1E7-03 degradation in human plasma. Type of series: in vitro ADME. The note with it: 37°C. As to the method:
(§1) 1E7-03 dissolved in DMSO (10 mM stock solution) was mixed with mouse plasma (Sigma-Aldrich), guinea pig plasma (Sigma-Aldrich), ferret plasma (BioreclamationIVT), monkey plasma (courtesy of Binhua Ling, PhD, Tulane University) and human plasma (collected from heathy volunteer by the Center for Sickle Cell Disease at Howard University) to the final concentration of 10 μM and incubated at 37°C. Aliquots were collected at different time points for up to 24 hrs. The resulting sample (60 μl) was mixed with 240 μl of cold acetone, vortexed for 2 min, kept at –20°C for 30 min, and then the precipitated protein was removed by centrifugation at 13,000 × g for 5 min. The supernatant was transferred to a clean test tube and evaporated to dryness using a SpeedVac concentrator. The residue reconstituted in 60 μl of acetonitrile for LC/FT-MS analysis. All experiments were run parallel in triplicates.

The subject of series [2] is RSP13 and β-actin mRNA in CEM T cells. The series is described as follows: Cellular transcription, RSP13 and β-actin mRNA by real-time RT-PCR. Type of series: cell-based. The note with it: 10 μM, in words. As to the method: For quantitative analysis of HIV-1 RNA, CEM T cells were infected with HIV-1-LUC-G virus. Cells were treated with 10 μM 1E7-03, 10 μM DP1, 10 μM DP3, 5 μM AZT or 5 μM 3TC and control cells were untreated or treated with DMSO. Total RNA was isolated using Trizol Reagent (Invitrogen, Carlsbad, CA) according to the manufacturer's protocol. Total RNA (100 ng) was reverse transcribed to cDNA using Superscript™ RT-PCR kit (Invitrogen, Carlsbad, CA). Hexamers and oligo-dT were used as primers. For real-time PCR analysis, cDNA was amplified using Roche LightCycler 480 (Roche Diagnostics) and SYBR Green1 Master mix (Roche Diagnostics). PCR was run for 45 cycles and each cycle included denaturation at 95°C for 10 seconds, annealing at 60°C for 10 seconds, and extension at 72°C for 10 seconds. Quantification of env and gag was carried using 18S RNA as a normalization standard. Quantification of housekeeping genes, β-actin and RSP13 was carried relative to 18S RNA. Mean Cp values were determined and ΔΔCt method was used to calculate relative expression levels. Unpaired t-test was used to test statistical significance.
The following primer sequences were used: env, forward - […], reverse-[…]; gag, forward- […], reverse- […]; β-actin, forward- […], reverse-[…]; RSP13, forward- […], reverse- […]; and 18SrRNA, forward- […], reverse- […].

The nature of series [3]: 1E7-03 degradation in monkey plasma. As to conditions: 37°C. Type of series: in vitro ADME. As to the method:
as §1

A short description of series [4]: 1E7-03 degradation in ferret plasma. As to conditions: 37°C. Type of series: in vitro ADME. As to the method:
as §1

The nature of series [5]: Stability of 1E7-03 in cell culture media and PBS. It is filed as physicochemical. As to the method: CEM T cells were seeded in 24-well plates (200,000 cells/well). On the next day cells were treated with 10 μM 1E7-03. Media (100 μl) was collected at different time points during 48 hrs and total protein was precipitated by 400 μl of cold acetone and centrifuged at 13,000 × g for 5 min. The supernatant was collected and evaporated to dryness using a SpeedVac concentrator. The dry pellet was reconstituted in 100 μl of acetonitrile for LC/FT-MS analysis. In addition, 1E7-03 (10 μM) was incubated at 37°C in serum-free media and complete media without cell treatment. Media of 100 μl was collected after 24 hrs of incubation. The stabilities of 1E7-03 (10 μM) at phosphate buffered saline (PBS) and PBS with the addition of 10% bovine serum albumin were also investigated at 37°C incubation. Samples (100 μl) were collected at different time points up to 24 hrs. All samples were prepared by the same above-mentioned procedure for LC/FT-MS analysis.

A short description of series [6]: 1E7-03 degradation in guinea pig plasma. Type of series: in vitro ADME. As to conditions: 10 μM, 37°C, 4 hrs. As to the method: as §1

The structures appear in SMILES notation.

Consider `COc1ccc(/C=C2\CCCc3c2nc2ccccc2c3C(=O)OC(C)C(=O)OC(C)(C)C)cc1OC` (centres unmarked) [DP1-07], for which the “fold reduction of HIV TAR RNA” value with HIV-1 89.6 (single i.p. dose 3 mg/kg, Figure 7G) amounted to 3.8 fold. Besides, the “toxicity in CEM T cells compared to 1E7-03” value in the series on CEM T cells was “reduced toxicity”.
As for `CCNC(=O)NC(=O)C(C)OC(=O)c1c2c(nc3ccccc13)/C(=C/c1ccc(OC)c(OC)c1)CC2` (centres unmarked) [1E7-03], the remaining at 24 h, 10 µM in series [1] is > 50%; in series [3], > 50%; in series [4], > 50%; in series [5] (PBS with 10% bovine serum albumin, 24 hrs, read-out: % remaining in PBS with 10% BSA), > 50%. Besides, in series [2], the “RSP13 mRNA expression” value is recorded as “slight induction”. Further, the “β-actin mRNA expression” value in series [2] is “slight induction”. The “fold reduction of HIV TAR RNA” value in the series with HIV-1 89.6 (single i.p. dose, 1E7-03 3 mg/kg, F07#13 […], vs untreated mice, Figure 6A) is reported as > 40 fold. In the series with HIV-1 89.6 (single i.p. dose, 1E7-03 3 mg/kg, F07#13 […], vs untreated mice, Figure 6B), the “fold reduction of HIV TAR-gag RNA” value is listed as > 39 fold. Moreover, in series [5] (10 μM 1E7-03 in media with 10% FBS, 37°C, 24 hrs, 1E7-03 remaining and DPs formed), the “Peak Area (%), Complete media” value was 98.6%. The “Peak Area (%), FBS free media” value in series [5] (10 μM 1E7-03 in serum free media, 37°C, 24 hrs, 1E7-03 remaining and DPs formed) is listed as 7%. In addition, the “stability in complete media” value in series [5] (10 μM, 37°C, 48 hrs, in words) was “remained stable and did not undergo degradation”. For the same compound, in series [5] (PBS with 10% bovine serum albumin, 4 hrs, read-out: % remaining intact in PBS with 10% BSA), the remaining at 4 h, 10 µM was found to be 75%. In addition, in series [5] (PBS, 37°C, 4 hrs), the “% of compound degraded in PBS” value is “over 80%”. Moreover, in series [5] (human, culture media of CEM T cells, 48 hrs of incubation, read-out: % remained intact in cell culture media), the remaining at 48 h, 10 µM was > 90%. Besides, the “% of compound degraded” value in series [6] was “about 80%”.
